The results in this text go back to patent US12662451B2, “Chemical compounds and uses thereof” (GLAXOSMITHKLINE INTELLECTUAL PROPERTY (NO.4) LIMITED, priority 2023, dated 2026).

Each structure is given as a SMILES string. Where a name gives a salt, the structure may show the parent alone.

Test [1] concerns the target T1, recombinant full-length WRN protein (1-1432) (Homo sapiens, UniProt Q14191).
T1 construct: recombinant full-length WRN protein (1-1432)
In words: WRN unwinding activity, fluorogenic 384-well assay (Example A). The settings on record: WRN unwinding activity, 4 hr; Table 2; read-out: 4 hr UNW pIC50 (converted). Type of test: biochemical. A digest of the protocol: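 Read-out is end-point unwinding of a fluorophore/quencher duplex (ex 525, em 598 nm) after 60 min with 200 μM ATP and 12 nM DNA (2× stocks), EDTA stop. Compound first sat 4 h with 200 pM WRN (2× stock) in pH 8.0 Tris buffer; four-parameter fit gives pIC50.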

For test [2], the system named is SW48 human colorectal cancer cells (MSI-H cancer cells). The test is described as follows: SW48 cell viability, CellTiter-Glo, 120 hours (Example B). The following applies: Homo sapiens, SW48, 120 h, read-out: SW48 pCC50, SW48 cell viability, 120 hours incubation (converted); Table 2.

T1 sequence (Q14191 whole entry): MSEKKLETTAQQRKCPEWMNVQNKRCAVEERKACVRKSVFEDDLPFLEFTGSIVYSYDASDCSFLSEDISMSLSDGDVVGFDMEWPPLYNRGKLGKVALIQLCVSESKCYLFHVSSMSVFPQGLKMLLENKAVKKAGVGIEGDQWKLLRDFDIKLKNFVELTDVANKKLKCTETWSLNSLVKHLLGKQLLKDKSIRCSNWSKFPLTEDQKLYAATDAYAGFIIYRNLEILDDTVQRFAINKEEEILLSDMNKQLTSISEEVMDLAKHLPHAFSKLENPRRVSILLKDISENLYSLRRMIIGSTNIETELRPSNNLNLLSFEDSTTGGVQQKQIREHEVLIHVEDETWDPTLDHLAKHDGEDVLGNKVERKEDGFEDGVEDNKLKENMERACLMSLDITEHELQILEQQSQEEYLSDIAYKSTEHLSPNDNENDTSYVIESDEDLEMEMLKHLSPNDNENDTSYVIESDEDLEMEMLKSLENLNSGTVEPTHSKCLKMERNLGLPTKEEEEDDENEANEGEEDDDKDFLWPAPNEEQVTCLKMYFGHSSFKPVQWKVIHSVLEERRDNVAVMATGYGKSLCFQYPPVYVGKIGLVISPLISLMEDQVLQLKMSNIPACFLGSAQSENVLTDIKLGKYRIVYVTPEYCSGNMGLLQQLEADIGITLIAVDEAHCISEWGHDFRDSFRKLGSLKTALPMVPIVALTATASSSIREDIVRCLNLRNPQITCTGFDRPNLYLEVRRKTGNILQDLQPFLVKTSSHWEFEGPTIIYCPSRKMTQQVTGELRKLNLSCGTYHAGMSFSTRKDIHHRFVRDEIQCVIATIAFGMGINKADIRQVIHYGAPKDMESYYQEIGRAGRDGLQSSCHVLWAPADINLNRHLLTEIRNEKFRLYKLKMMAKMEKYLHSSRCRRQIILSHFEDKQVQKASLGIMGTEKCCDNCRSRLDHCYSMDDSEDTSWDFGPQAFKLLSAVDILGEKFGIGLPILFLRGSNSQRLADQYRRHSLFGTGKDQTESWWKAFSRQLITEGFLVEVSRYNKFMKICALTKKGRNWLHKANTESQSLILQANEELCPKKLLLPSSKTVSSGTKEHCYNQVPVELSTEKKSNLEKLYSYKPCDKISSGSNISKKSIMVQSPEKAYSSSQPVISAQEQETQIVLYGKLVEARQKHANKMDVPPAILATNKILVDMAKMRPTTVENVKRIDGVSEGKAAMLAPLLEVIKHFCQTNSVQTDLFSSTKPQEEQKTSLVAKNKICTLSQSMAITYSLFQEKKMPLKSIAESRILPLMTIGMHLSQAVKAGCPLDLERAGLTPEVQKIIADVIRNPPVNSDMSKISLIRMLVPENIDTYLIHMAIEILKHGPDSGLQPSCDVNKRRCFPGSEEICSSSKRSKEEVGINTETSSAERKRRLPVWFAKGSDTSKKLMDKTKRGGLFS

As to `CN(c1ccc([C@H]2CCC[C@@H](C(=O)Nc3ccc(C(F)(F)F)cc3F)[C@@H]2C(=O)O)cc1)S(=O)(=O)c1cccc(C2OCCO2)c1` [Example 118, (1R,2S,6R)-2-(4-((3-(1,3-dioxolan-2-yl)-N-methylphenyl)sulfonamido)phenyl)-6-((2-fluoro-4-(trifluoromethyl)phenyl)carbamoyl)cyclohexane-1-carboxylic acid], the IC50 in test [1] was 2 nM. Besides, in test [2], the CC50 was 1260 nM.

Regarding `Cc1nc2ccc(S(=O)(=O)N(C)c3ccc([C@H]4CCC[C@@H](C(=O)Nc5ccc(C(F)(F)F)cc5F)[C@@H]4C(=O)O)cc3)cc2n1C` [Example 131, (1R,2R,6S)-2-((2-fluoro-4-(trifluoromethyl)phenyl)carbamoyl)-6-(4-((N,1,2-trimethyl-1H-benzo[d]imidazole)-6-sulfonamido)phenyl)cyclohexane-1-carboxylic acid], the IC50 in test [1] is 6.31 nM. Moreover, the CC50 in test [2] was 3980 nM.

Turning to `CN(c1ccc([C@H]2CCC[C@@H](C(=O)Nc3ccc(C(F)(F)F)cc3F)[C@@H]2C(=O)O)cc1)S(=O)(=O)c1ccc(S(N)(=O)=O)cc1` [Example 133, (1R,2R,6S)-2-((2-fluoro-4-(trifluoromethyl)phenyl)carbamoyl)-6-(4-((N-methyl-4-sulfamoylphenyl)sulfonamido)phenyl)cyclohexane-1-carboxylic acid], in test [1], the IC50 was 3.98 nM. In test [2], the CC50 was 12600 nM.

Regarding `CN(c1ccc([C@H]2CCC[C@@H](C(=O)Nc3ccc(C(F)(F)F)cc3F)[C@@H]2C(=O)O)cc1)S(=O)(=O)c1cccc(S(N)(=O)=O)c1` [Example 134, (1R,2R,6S)-2-((2-fluoro-4-(trifluoromethyl)phenyl)carbamoyl)-6-(4-((N-methyl-3-sulfamoylphenyl)sulfonamido)phenyl)cyclohexane-1-carboxylic acid], in test [1], the IC50 was 7.94 nM. For the same compound, the CC50 in test [2] was 12600 nM.

Regarding `C=CS(=O)(=O)N(C)c1ccc([C@H]2CCC[C@@H](C(=O)Nc3ccc(C(F)(F)F)cc3F)[C@@H]2C(=O)O)cc1` [Example 135, (1R,2R,6S)-2-((2-fluoro-4-(trifluoromethyl)phenyl)carbamoyl)-6-(4-(N-methylvinylsulfonamido)phenyl)cyclohexane-1-carboxylic acid], in test [1], the IC50 is 2.51 nM. In test [2], the CC50 was 2510 nM.

For the compound `COc1cc(S(=O)(=O)N(C)c2ccc([C@H]3CCC[C@@H](C(=O)Nc4ccc(C(F)(F)F)cc4F)[C@@H]3C(=O)O)cc2)ccc1Br` [Example 136, (1R,2S,6R)-2-(4-((4-bromo-3-methoxy-N-methylphenyl)sulfonamido)phenyl)-6-((2-fluoro-4-(trifluoromethyl)phenyl)carbamoyl)cyclohexane-1-carboxylic acid], in test [1], the IC50 is 39.8 nM. The CC50 in test [2] is 3160 nM.

Regarding `Cc1nc2cc(S(=O)(=O)N(C)c3ccc([C@H]4CCC[C@@H](C(=O)Nc5ccc(C(F)(F)F)cc5F)[C@@H]4C(=O)O)cc3Br)ccc2n1C` [Example 166, (1R,2S,6R)-2-(3-bromo-4-((N,1,2-trimethyl-1H-benzo[d]imidazole)-5-sulfonamido)phenyl)-6-((2-fluoro-4-(trifluoromethyl)phenyl)carbamoyl)cyclohexane-1-carboxylic acid], the IC50 in test [1] is 7.94 nM. In addition, the CC50 in test [2] is 2510 nM.

`Cc1nc2cc(S(=O)(=O)N(C)c3ccc([C@H]4CCC[C@@H](C(=O)Nc5ccc(C(F)(F)F)cc5F)[C@@H]4C(=O)O)cc3C#CC(C)(C)O)ccc2n1C` [Example 167, (1R,2R,6S)-2-((2-fluoro-4-(trifluoromethyl)phenyl)carbamoyl)-6-(3-(3-hydroxy-3-methylbut-1-yn-1-yl)-4-((N,1,2-trimethyl-1H-benzo[d]imidazole)-5-sulfonamido)phenyl)cyclohexane-1-carboxylic acid]: the IC50 in test [1] was 5.01 nM. Also, the CC50 in test [2] was 20000 nM.

As to `Cc1nc2cc(S(=O)(=O)N(C)c3ccc([C@H]4CCC[C@@H](C(=O)NC56CC(CC(F)(F)F)(C5)C6)[C@@H]4C(=O)O)cc3)ccc2n1C` [Example 174, (1R,2R,6S)-2-((3-(2,2,2-trifluoroethyl)bicyclo[1.1.1]pentan-1-yl)carbamoyl)-6-(4-((N,1,2-trimethyl-1H-benzo[d]imidazole)-5-sulfonamido)phenyl)cyclohexane-1-carboxylic acid], the IC50 in test [1] was 20 nM. In test [2], the CC50 was 10000 nM.

For the compound `Cc1nc2cc(S(=O)(=O)N(C)c3ccc([C@H]4CCC[C@@H](C(=O)Nc5ccc(C6CCC6)cc5F)[C@@H]4C(=O)O)cc3)ccc2n1C` [Example 175, (1R,2R,6S)-2-((4-cyclobutyl-2-fluorophenyl)carbamoyl)-6-(4-((N,1,2-trimethyl-1H-benzo[d]imidazole)-5-sulfonamido)phenyl) cyclohexane-1-carboxylic acid], in test [1], the IC50 is 3.16 nM. Also, the CC50 in test [2] is 1580 nM.

On to `CC[C@H]1CC[C@H](NC(=O)[C@@H]2CCC[C@H](c3ccc(N(C)S(=O)(=O)c4ccc5c(c4)nc(C)n5C)cc3)[C@H]2C(=O)O)CC1` [Example 176, (1R,2R,6S)-2-(((1r,4R)-4-ethylcyclohexyl)carbamoyl)-6-(4-((N, 1,2-trimethyl-1H-benzo[d]imidazole)-5-sulfonamido)phenyl)cyclohexane-1-carboxylic acid], for which, in test [1], the IC50 was 1.26 nM. Also, the CC50 in test [2] is 1260 nM.

Take `Cc1nc2cc(S(=O)(=O)N(C)c3ccc([C@H]4CCC[C@@H](C(=O)N[C@H]5CC[C@H](C(C)(C)F)CC5)[C@@H]4C(=O)O)cc3)ccc2n1C` [Example 182, (1R,2R,6S)-2-(((1r,4R)-4-(2-fluoropropan-2-yl)cyclohexyl)carbamoyl)-6-(4-((N, 1,2-trimethyl-1H-benzo[d]imidazole)-5-sulfonamido)phenyl)cyclohexane-1-carboxylic acid]: the IC50 in test [1] was 2.51 nM. Further, in test [2], the CC50 was 1580 nM.

For `Cc1nc2cc(S(=O)(=O)N(C)c3ccc([C@H]4CCC[C@@H](C(=O)NC56CC(C7CCCC7)(C5)C6)[C@@H]4C(=O)O)cc3)ccc2n1C` [Example 187, (1R,2R,6S)-2-((3-cyclopentylbicyclo[1.1.1]pentan-1-yl)carbamoyl)-6-(4-((N,1,2-trimethyl-1H-benzo[d]imidazole)-5-sulfonamido)phenyl)cyclohexane-1-carboxylic acid, formic acid salt], in test [1], the IC50 is 6.31 nM. Besides, the CC50 in test [2] is 3980 nM.

`Cc1nc2cc(S(=O)(=O)N(C)c3ccc([C@H]4CCC[C@@H](C(=O)N[C@H]5CC[C@H](C6CCC6)CC5)[C@@H]4C(=O)O)cc3)ccc2n1C` [Example 188, (1R,2R,6S)-2-(((1r,4R)-4-cyclobutylcyclohexyl)carbamoyl)-6-(4-((N,1,2-trimethyl-1H-benzo[d]imidazole)-5-sulfonamido)phenyl)cyclohexane-1-carboxylic acid]: the IC50 in test [1] is 2.51 nM. In addition, the CC50 in test [2] was 2510 nM.

For the compound `CCC[C@H]1CC[C@H](NC(=O)[C@@H]2CCC[C@H](c3ccc(N(C)S(=O)(=O)c4ccc5c(c4)nc(C)n5C)cc3)[C@H]2C(=O)O)CC1` [Example 190, (1R,2R,6S)-2-(((1s,4R)-4-propylcyclohexyl)carbamoyl)-6-(4-((N,1,2-trimethyl-1H-benzo[d]imidazole)-5-sulfonamido)phenyl)cyclohexane-1-carboxylic acid], the IC50 in test [1] was 1.58 nM. For the same compound, the CC50 in test [2] is 3980 nM.

With `Cc1nc2cc(S(=O)(=O)N(C)c3ccc([C@H]4CCC[C@@H](CO[C@H]5CC[C@H](C(F)(F)F)CC5)[C@@H]4C(=O)O)cc3)ccc2n1C` [Example 215, (1R,2R,6S)-2-((((1r,4R)-4-(trifluoromethyl)cyclohexyl)oxy)methyl)-6-(4-((N,1,2-trimethyl-1H-benzo[d]imidazole)-5-sulfonamido)phenyl)cyclohexane-1-carboxylic acid], the IC50 in test [1] is 79.4 nM. Besides, in test [2], the CC50 was 20000 nM.

As for `Cc1nc2cc(S(=O)(=O)N(C)c3ccc([C@H]4CCC[C@@H](COc5ccc(C(F)(F)F)cc5)[C@@H]4C(=O)O)cc3)ccc2n1CCN` [Example 216, (1R,2S,6R)-2-(4-((1-(2-aminoethyl)-N,2-dimethyl-1H-benzo[d]imidazole)-5-sulfonamido)phenyl)-6-((4-(trifluoromethyl)phenoxy)methyl)cyclohexane-1-carboxylic acid, 0.41 formic acid salt], in test [1], the IC50 was 5.01 nM. In addition, the CC50 in test [2] was 12600 nM.

For `CCN(c1ccc([C@H]2CCC[C@@H](C(=O)Nc3ccc(C(F)(F)F)cc3F)[C@@H]2C(=O)O)cc1)S(=O)(=O)c1ccc2c(c1)nc(C)n2C` [Example 233], the IC50 in test [1] was 12.6 nM. Besides, the CC50 in test [2] was 5010 nM.

As to `Cc1nc2cc(S(=O)(=O)N(c3ccc([C@H]4CCC[C@@H](C(=O)Nc5ccc(C(F)(F)F)cc5F)[C@@H]4C(=O)O)cc3)C3CC3)ccc2n1C` [Example 238, (1R,2S,6R)-2-(4-((N-cyclopropyl-1,2-dimethyl-1H-benzo[d]imidazole)-5-sulfonamido)phenyl)-6-((2-fluoro-4-(trifluoromethyl)phenyl)carbamoyl)cyclohexane-1-carboxylic acid], the IC50 in test [1] was 3.98 nM. Moreover, the CC50 in test [2] was 2000 nM.

For the compound `CN(c1ccc([C@H]2CCC[C@@H](C(=O)Nc3ccc(C(F)(F)F)cc3F)[C@@H]2C(=O)O)cc1)S(=O)(=O)c1ccc(O)c(C=O)c1` [Example 248], the IC50 in test [1] is 3.16 nM. The CC50 in test [2] is 3980 nM.

As for `CN(c1ccc([C@H]2CCC[C@@H](C(=O)Nc3ccc(C(F)(F)F)cc3F)[C@@H]2C(=O)O)cc1)S(=O)(=O)c1ccc2c(c1)CNCC2` [Example 260, (1R,2R,6S)-2-((2-fluoro-4-(trifluoromethyl)phenyl)carbamoyl)-6-(4-((N-methyl-1,2,3,4-tetrahydroisoquinoline)-7-sulfonamido)phenyl)cyclohexane-1-carboxylic acid hydrochloride], the IC50 in test [1] was 2 nM. Also, the CC50 in test [2] was 1580 nM.
